Key:
PDE5 = PDE5 (Sus scrofa, UniProt A0A287B475); assay: Inhibitory action on the enzyme cGMP-PDE obtained from porcine platelets; format: biochemical; settings: 1 μM cGMP substrate, 1 mM EGTA, read-out: PDE 5 IC50
Description: 1) Inhibitory Action on the Enzyme cGMP-PDE Obtained from Porcine Platelets
The inhibitory activity of a test compound on the enzyme cGMP-PDE prepared from porcine platelets was determined by adding a solution of the test compound dissolved in DMSO to a reaction solution, where 1 μM cGMP was used as the substrate in the presence of 1 mM EGTA in accordance with a method of Tompson et al. The final concentration of DMSO in the reaction solution was 1% or less. Preparation of cGMP-PDE was conducted as follows. Porcine platelets were added to buffer A (20 mM Tris/HCl, 2 mM magnesium acetate, 10 mM 2-mercaptoethanol, 0.1 mM EGTA; pH 7.4), and then sonicated. The resulting suspension was centrifuged at 100,000×g for 60 min, and the resulting supernatant was subjected to a column (DEAE-Toyopearl 650S produced by Tosoh, Tokyo, Japan). After the column was washed with buffer A, the enzyme was eluted with a gradient of from 0.075 to 0.25 M NaCl in buffer A to give a CGMP-PDE fraction. The resulting fraction was dialyzed, concentrated and stored.

[1] = test system: penile cavernosum preparation removed from a rabbit; assay: Augmenting action of PDE5 inhibitor on the relaxation by nitroprusside of the penile cavernosum preparation removed from a rabbit; settings: for EC50: Oryctolagus cuniculus, compound concentration at which the contraction caused by phenylephrine is relaxed by 50%, regression analysis on relaxation curve, duplicate; for Relaxation ratio (%): after nitroprusside (300 μM), phenylephrine contraction, mean of duplicate
Description: 2) Augmenting Action of the PDE5 Inhibitor on the Relaxing Action of Nitroprusside on a Penile Cavernosum Preparation Removed from a Rabbit
The penis was removed from a NZW white rabbit (about 3 kg) killed by intravenous administration of pentobarbital (50 mg/kg). After removal, the cavernosum was exposed by removal of surrounding tissues such as albuginea to give a preparation (about 10×1.5×1.5 mm). This preparation was suspended on a Magnus tube filled up with 10 ml Krebs-Henseleit's nutritive solution (118.4 mM NaCl, 4.7 mM KCl, 2.5 mM CaCl2, 1.3 mM MgSO4, 1.2 mM KH2PO4, 25.0 mM NaHCO3, 11.0 mM glucose, 0.026 mM EDTA and 0.001 mM indomethacin) at 37° C., and a gas mixture (95% oxygen+5% carbon dioxide) was bubbled thereinto. Then, the isometric tension was recorded under a load of 2 g. To stabilize the contraction, contraction caused by adding a potassium chloride solution (final concentration: 100 mM) and washing were repeated twice, and further, contraction by adding phenylephrine (final concentration: 10 μM) and washing were also conducted.
It was filled up again with 10 ml Krebs-Henseleit's solution, and L-N^G-nitroarginine methyl ester (final concentration: 100 μM) was added to inhibit the formation of endogenous nitrogen monoxide. Contraction was caused by adding phenylephrine (final concentration: 10 μM), and a chemical solution was added thereto at a final concentration of 3, 30 or 300 nM. Dimethyl sulfoxide was used as the medium in this reaction. 15 min after the chemical was added, nitroprusside (final concentration: 300 μM) was added to relax the preparation. Further, papaverine (final concentration: 100 μM) was added to determine the maximum relaxation.
After the experiment, the tension generated upon adding papaverine was used as the base line, and the relaxation of the preparation by adding nitroprusside was recorded on a chart by using a DEGIMATIC CALIPER to determine the degree of relaxation.
Values in the table indicate relaxation ratio (%) after nitroprusside was added to the preparation pretreated with the 3, 30 and 300 nM compound, and the mean in a duplicate experiment was recorded. Further, the EC50 value indicates the compound concentration at which the contraction caused by phenylephrine is relaxed by 50%, and this value was calculated by regression analysis on a relaxation curve in the duplicate experiment.

[2] = preparation pretreated with 3 nM compound
[3] = preparation pretreated with 30 nM compound
[4] = preparation pretreated with 300 nM compound

Row | SMILES | IC50 (PDE5) [nM] | EC50 [1] [nM] | Relaxation ratio (%) [1, 2] [%] | Relaxation ratio (%) [1, 3] [%] | Relaxation ratio (%) [1, 4] [%]
1 | COc1ccc(CNc2nnc(N3CCC4(CC3)CC(O)C4)c3ccc(C#N)cc23)cc1Cl.Cl [Example 9, 4-[(3-Chloro-4-methoxybenzyl)amino]-1-(2-hydroxy-7-azaspiro[3.5]non-7-yl)-6-phthalazinecarbonitrile Hydrochloride] | 0.54 | 2 | 56.6 | 77.7 | 79.6
2 | COc1ccc(CNc2nnc(N3CCC(C(F)CO)CC3)c3ccc(C#N)cc23)cc1Cl.Cl (stereo not drawn) [Example 36, 4-[(3-Chloro-4-methoxybenzyl)amino]-1-(4-[1-fluoro-2-hydroxyethyl)piperidino]-6-phthalazinecarbonitrile Hydrochloride] | 0.25 | 3.5 | 35.0 | 60.8 | 54.8
3 | COc1ccc(CNc2nnc(N3CCC(OCCO)CC3)c3ccc(C#N)cc23)cc1Cl.Cl [Example 37, 4-[(3-Chloro-4-methoxybenzyl)amino]-1-[4-(2-hydroxyethoxy)piperidino]-6-phthalazinecarbonitrile Hydrochloride] | – | 29.3 | 33.4 | 50.1 | 56.0

The next lines start with results.

Row | IC50 (PDE5) [nM] | EC50 [1] [nM] | SMILES | Relaxation ratio (%) [1, 2] [%] | Relaxation ratio (%) [1, 3] [%] | Relaxation ratio (%) [1, 4] [%]
4 | 0.89 | 3 | COc1ccc(CNc2nnc(N3CCC(F)(CO)CC3)c3ccc(C#N)cc23)cc1C.Cl [Example 88, 1-[4-Fluoro-4-(hydroxymethyl)piperidino]-4-[(4-methoxy-3-methylbenzyl)amino]-6-phthalazinecarbonitrile Hydrochloride] | 50.0 | 67.5 | 75.0
5 | 0.23 | 0.7 | COc1ccc(CNc2nnc(N3CCC(O)CC3)c3ccc(C#N)cc23)cc1Br.Cl [Example 77, 4-[(3-Bromo-4-methoxybenzyl)amino]-1-(4-hydroxypiperidino)-6-phthalazinecarbonitrile Hydrochloride] | 58.8 | 71.7 | 80.6
6 | – | 3 | COc1ccc(CNc2nnc(N3CCC(O)CC3)c3ccc(C#N)cc23)cc1C.Cl [Example 86, 1-(4-Hydroxypiperidino)-4-[(4-methoxy-3-methylbenzyl)amino]-6-phthalazinecarbonitrile Hydrochloride] | 50.2 | 70.2 | 71.5
7 | 0.5 | 2.8 | COc1ccc(CNc2nnc(N3CCC(F)(CO)CC3)c3ccc(C#N)cc23)cc1Br.Cl [Example 83, 4-[(3-Bromo-4-methoxybenzyl)amino]-1-[4-fluoro-4-(hydroxymethyl)piperidino]-6-phthalazinecarbonitrile Hydrochloride] | 50.6 | 67.3 | 69.9

Reference: patent US6498159B1, “Phthalazine derivatives and remedies for erectile dysfunction” (Eisai Co., Ltd., priority 1998, dated 2002)
